Assays:
NZMp1 = test: Human tumour xenograft; format: in vivo; set-up: key to Activity: Active: NCI Criterion for activity tumour volume T/C ≦ 40%; Inactive: NCI Criterion for activity tumour volume T/C ≦ 40%; settings: NZMp1, Melanoma
Protocol: (§1) The compound of Formula II was evaluated in a number of xenografts using cell lines derived from cervical, endometrial, lung and colon carcinomas, leukaemia and melanoma (Table 3). These studies indicate that the compound according to the present invention has significant activity in xenografts.

NZC1 = test: Human tumour xenograft; format: in vivo; set-up: key to Activity: Active: NCI Criterion for activity tumour volume T/C ≦ 40%; Inactive: NCI Criterion for activity tumour volume T/C ≦ 40%; settings: NZC1, Cervix
Protocol: as §1

[1] = test system: NZM6 melanoma line (wild-type p53); test: Induction of cell cycle arrest, flow cytometry; format: cell-based, human; settings: NZM6, 0.3 μM for one hour, grown up to 9 days
Protocol: (§2) Flow cytometry was used to determine the magnitude and duration of cell cycle arrest induced by the compound of the present invention. Two human melanoma lines were used in a preliminary study, one having wild-type p53 status (NZM6) and one having mutant p53 status (NZM4). Cells were exposed to the compound of Formula II for one hour at a concentration of 0.3 μM, washed free of drug and grown for up to a further 9 days.

[2] = test system: NZM4 melanoma line (mutant p53); test: Induction of cell cycle arrest, flow cytometry; format: cell-based, human; settings: NZM4, 0.3 μM for one hour, grown up to 9 days
Protocol: as §2

AuxB1 = test: In vitro susceptibility to multidrug resistance, continuous exposure IC50; format: cell-based, Chinese Hamster; settings: Cricetulus griseus, AuxB1 (no multidrug resistance)
Protocol: (§3) Multidrug resistance mediated by p-glycoprotein and related transport proteins is an important means by which cancer cells evade cytotoxic drugs. […] IC50 values of several drugs were measured in continuous exposure assays in these two cell lines. The resistance factor was calculated as the ratio of these values. High values indicate high susceptibility to resistance.

CHrC5 = test: as above; format: cell-based, Chinese Hamster
Protocol: as §3

Lewis lung = test: Murine Lewis lung tumour growth delay; format: in vivo; settings: intraperitoneal dose of 8.9 mg/kg
Protocol: In addition, the compound of Formula II, by way of an intraperitoneal dose of 8.9 mg/kg, induced a growth delay of 8.5 days in a murine tumour (Lewis lung) that is also used extensively in drug development programmes.

[3] = test system: melanoma tissue taken from a patient; test: Response of a melanoma taken directly from a cancer patient, xenograft in immunodeficient mice; format: in vivo, human; settings: two doses of 5.9 mg/kg, 7 days apart
Protocol: Metastatic melanoma is particularly resistant to current chemotherapy. Melanoma tissue taken from a patient at surgery was implanted subcutaneously in immunodeficient mice. After three months, the tumour in one animal was excised and transferred to further immunodeficient mice. The tumours were grown to a diameter of approximately 4 mm before treatment and the compound of Formula II was administered in two doses of 5.9 mg/kg, 7 days apart.

[4] = Plasma and tissue pharmacokinetics; format: in vivo, mice
Protocol: Plasma and tissue pharmacokinetics of the compound of Formula II, were compared following intraperitoneal administration at a dose of 8.9 mg/kg body weight. Mice were terminally anaesthetised at various times up to 75 hours after drug administration and tissue and blood was taken for preparation of samples. Plasma and tissue concentrations of the compound of Formula II were measured by high performance liquid chromatography-mass spectrophometry. The results are shown in FIG. 8, the vertical bars showing the standard deviation of the mean values from three mice per time point. The concentration of drug in plasma is very low on this scale (<100 nmol/kg), implying a high ratio of the concentration of cell-associated drug to that of external drug
Plasma and tissue pharmacokinetics, were further investigated following intraperitoneal administration of the compound of Formula II at a dose of 8.9 mg/kg. Mice were terminally anaesthetised at various times up to 75 hours after drug administration and tissue and blood was taken for preparation of samples. Plasma and tissue concentrations of the compound of Formula II were measured by high performance liquid chromatography-mass spectrophometry. The results are shown in FIG. 9, the vertical bars showing the standard deviation of the mean values from three mice per time point. The concentration differential (ie the slope of each plot) indicates the half life of the compound of Formula II in each tissue type and plasma. The half life of the compound of Formula II in various tissue types including liver, kidney, brain, heart and plasma, calculated from points on the concentration time curve, is approximately three hours. The half life of the compound of Formula II in tumour tissue, calculated from points on the concentration time curve, is approximately 9 hours. This is approximately a three-fold increase in the concentration differential in tumour tissue to non-tumour tissue and plasma concentration of Formula II. This effectively leads to an accumulation of the compound of Formula II in tumour tissue relative to other tissue.
The plasma and tissue pharmacokinetics of a compound of Formula II, were also compared with several well known cancer therapies as shown in FIG. 10. The analytical methods used to obtain data for other therapies varies and was taken from the literature. The AUC (area under the concentration-time curve) values of the compound of Formula II show approximately a 6-7 fold increase in concentration of Formula II in tumour tissue over liver tissue. The AUC values in plasma are negligible. A longer half life (higher concentration differential) in a particular tissue, leads to a larger AUC value (area under the concentration versus time curve). The AUC values provide an indication of the amount of each compound accumulated in a particular tissue or plasma over time.
The ability of different anticancer drugs to be retained selectively in tumour tissue can also be conveniently compared as the ratio of AUC values for a normal tissue versus a tumour tissue. […] Cancer Chemother Pharmacol. 1996; 38: 417-24), amsacrine and asulacrine (Kestell P, Paxton J W, Evans P C, Young D, Jurlina J L, Robertson I G C, Baguley B C. Disposition of amsacrine and its analogue 9-((2-methoxy-4-[(methylsulfonyl)-amino]phenyl)amino)-N,5-dimethyl-4-acridinecarboxamide (CI-921) in plasma, liver, and Lewis lung tumors in mice. Cancer Res 1990; 50: 503-508) and DACA (Kestell P, Dunlop I, McCrystal M R, Evans B D, Paxton J W, Gamage R S K A, Baguley B C. Plasma pharmacokinetics of DACA (N-[2-(dimethylamino)-ethyl]-acridine-4-carboxamide) in a phase I trial. Cancer Chemother Pharmacol 1999; 44: 45-50). Similar analytical methods, employing high performance liquid chromatography, were used. […]

[5] = P53 not known, tumour volume T/C
[6] = intraperitoneal 8.9 mg/kg, mice

## Cc1cccc2cc3c(=O)n(C)cc(C(=O)NCCN(C)C)c3nc12 [Formula II, N-[2-(dimethylamino)ethyl]-2,6 dimethyl-1-oxo-1,2-dihydrobenzo[b]-1,6-naphthyridine-4-carboxamide]
NZMp1
  Activity: Active
NZMp1; [5]
  % control: <10%
NZC1
  Activity: Active
NZC1; [5]
  % control: 38%
[1]
  cell cycle arrest: extended arrest of NZM6 cells in both G1- and G2-phase
[2]
  cell cycle arrest: minimal effect in G1-phase but an extended effect in G2-phase
AuxB1
  IC50: 3.5 nM
CHrC5; Cricetulus griseus, CHrC5 (multidrug resistant), continuous exposure
  IC50: 5.2 nM
CHrC5; ratio of IC50 values in CHrC5 and AuxB1
  Resistance factor: 1.5
Lewis lung
  growth delay: 8.5 days
[3]
  melanoma growth: strong inhibition of melanoma growth
[4]; compared with doxorubicin, amsacrine, asulacrine and DACA
  ratio of AUC values (tumour/liver): clearly superior
[4]; [6]
  half life in liver, kidney, brain, heart and plasma: approximately three
  increase in the concentration differential in tumour tissue to non-tumour tissue and plasma: approximately three
[4]; intraperitoneal 8.9 mg/kg, mice, up to 75 hours
  concentration of drug in plasma: < 100 nmol/kg
[4]; mice
  AUC: increase in concentration in tumour tissue over liver tissue: 6-7 fold
[4]; mouse, ip, colon 38 tumour tissue, intraperitoneal 8.9 mg/kg, mice
  half-life: ~9 h
[4]; relative to tissue AUC, mice
  AUC values in plasma: negligible

Reference: patent US20080248134A1, “Oral compositions, use and combinations of N-[2-(dimethylamino)ethyl]-2,6 dimethyl-1-oxo-1,2-dihydrobenzo[b]-1,6-naphthyridine-4-carboxamide and closely related analogues thereof” (Auckland Uniservices Limited, priority 2005, published 2008)
